Laboratory results: patent US10132029B2, “Method for reducing adhesion of microorganisms to fabrics” (priority 2013, dated 2018)

Experiments:
Staphylococcus aureus [1] = format: cell-based; settings: for Reduction in cell count relative to control [%] S. aureus: coated glass slide vs uncoated glass control K; for Cell count [1/cm^2] S. aureus: glass slide coated from 0.1% strength solution, bacterial suspension 10^9 microbes/ml, 30 measuring windows
Excerpt: (§1) Silane derivatives S1, S3, S4 and S5 as identified above in example 1 were used to produce coatings on glass slides. As a control (comparison sample) K, an uncoated glass slide cleaned with isopropanol was used.
(§2) For the coating of the slides they were immersed for 60 seconds into a 0.1% strength solution of the corresponding silane derivative in ethanol/water as solvent with a water fraction of 5%. The solutions had been adjusted with acetic acid beforehand to a pH in the range from 4 to 5. The wetted slides were subsequently dried at 160° C. for 1 hour.
(§3) The slides wetted with the bacterial suspension were analyzed by microscope to determine the adhering bacteria. […] The fluorescent dye used was DAPI (4′,6-diamidine-2-phenylindole), which binds to DNA and fluoresces under UV excitation. In order to determine the adhesion characteristics, the cell counts per cm^2 were ascertained in 30 measuring windows, and the adhesion pattern was evaluated. Cell attachment was evaluated on an Olympus IX 51 using the Labflow AnalySIS image processing program.
(§4) Bacterial suspensions produced and used were suspensions of test cultures of the strains Staphylococcus aureus and Escherichia coli. The concentration of the bacterial suspension was 10^9 microbes/ml.

S. aureus DSMZ 20231 = assay: Syto9 microtiter plate assay: adhesion of bacteria to coated polyester fabric samples; format: cell-based, Staphylococcus aureus; settings: for Reduction in adhered bacteria [%]: S. aureus, polyester; for Reduction in adhered bacteria [%] S. aureus: polyester fabric, application concentration 0.1 wt %, commercial product applied directly by padding, relative to uncoated fabric
Description: Circular fabric samples with a diameter of 0.6 cm were punched from coated and uncoated cotton and polyester fabrics. The fabric samples were fixed to a microtiter plate. The fabric samples were washed with acetone and sterilized with UV light for 60 minutes.
The strains were coated fresh from glycerol bacterial cultures onto tryptic soy agar (TSA). Incubation took place overnight at 33° C. The nutrient medium prepared was a tryptic soy broth (TSB), with 30% of the amount recommended by the manufacturer, supplemented with 0.25% of glucose. […] The nutrient medium was inoculated with the bacterial cultures and after inoculation was cultivated overnight at 37° C. and 160 rpm.
The resulting overnight cultures were centrifuged at 8500 g for 15 minutes and washed with 50 ml of isotonic saline solution (0.9 wt %). Bacterial suspensions in isotonic saline solutions were prepared. The optical density of the various bacterial suspensions was determined at 595 nm and adjusted to a level of about 1.2.
50 μl of the final microorganism suspension in isotonic saline solution (0.9 wt %) prepared as described under 2.2 were added to the coated and uncoated fabric samples fixed on the microtiter plate (see 2.1). The microtiter plates were closed and sealed off with Parafilm. The microtiter plates were placed in an antievaporation box and incubated at 33° C. for 2 h and at 40 rpm. The expected colony-forming unit count (CFU) of the inoculum at the start was 10^6-10^7 CFU/ml.
After the biofilm had formed, the planctonic cells were removed and used as a sample for determining the optical density at 595 nm. For this purpose, the samples were made up to a volume of 150 μl, and 100 μl were withdrawn for the optical density determination in a photometer. The optical density of the corresponding control solution with sterile isotonic saline solution was subtracted from the optical densities found. Through the determination of the planctonic cells after the formation of biofilm, the amount of bacteria available for adhesion was monitored.
The fabric samples and the resulting biofilm were washed three times with 200 to 300 μl of isotonic saline solution.
The fabric samples obtained under 2.4 (after formation of biofilm) were placed together with 100 μl of isotonic saline solution into wells of a 96-well microtiter plate.
Investigations into the removal of the adhered microorganisms from the fabric surfaces were carried out with vortexing, ultrasound, with enzymatic treatment, or with combinations thereof. Treatment in the vortex amounted to 5 minutes and was performed horizontally. The ultrasound treatment was carried out in an ultrasound bath for 5 minutes. For the enzymatic removal, the fabric samples were treated with enzymes, such as trypsin or a mixture of different enzymes, for example, during incubation at 37° C. for 1 hour.
Following removal of the adhered bacteria, the fabric samples were removed from the microtiter plates.
The number of removed bacteria in the resulting suspension was determined by staining with Syto9 and fluorescence measurement (fluorescence filter with excitation at 485/20 nm and emission at 528/20 nm) or by staining with BacTiterGlo and bioluminescence measurement. Furthermore, it is possible to determine the number of adhered and removed microorganisms by means of protein assay (e.g., BCA assay, Bradford Assay) or optical density proliferation assay.
The relative variables (e.g., fluorescence units (RFU)) concerning the coated and uncoated fabrics were compared, allowing the reduction in adhered bacteria in % to be determined in accordance with the following formula: Reduction in adhered bacteria[%]=[(RFUuc−RFUuc)/RFUuc]*100 where • RFUuc=relative fluorescence units of the removed bacteria of the uncoated substrate • RFUc=relative fluorescence units of the removed bacteria of the coated substrate […]

Staphylococcus aureus [2] = assay: Antimicrobial activity of coated polyester fabric samples as per JIS L 1902; format: cell-based; settings: for Antimicrobial activity[log] Unwashed: 18 hours at 37° C.
Description: The procedure here is that the fabric sample was inoculated with a defined amount of a microbial suspension (inoculum). Test specimens with a weight of approximately 0.4 g were investigated in a triplicate determination.
The inoculated fabric sample was incubated in a closed system at 37° C. over a period of 18 hours. Following incubation, the bacteria of a defined amount of a dilution solution were recorded. The difference in the bacterial count of the fabric sample at 0 hours in comparison to the fabric sample after 18 hours served as a basis for evaluation. The antimicrobial activity is reported as a logarithmic or percentage value. Here, a reduction in the microbe count of 0% corresponds to inadequate antimicrobial action, a microbe reduction in the range from 0.1 to less than 90% to an inadequate antibacterial action, and a microbe reduction of greater than 90% to a good antibacterial action.

Escherichia coli = assay: Bacterial adhesion to coated glass slides via fluorescence microscopy (DAPI); format: cell-based; settings: for Reduction in cell count relative to control [%] E. coli: coated glass slide vs uncoated glass control K; for Cell count [1/cm^2] E. coli: glass slide coated from 0.1% strength solution, bacterial suspension 10^9 microbes/ml, 30 measuring windows
Excerpt: as §1, §2, §3, §4

[3] = coating concentration 0.001 %, wash pretreatment (A) unwashed
[4] = coating concentration 0.001 %, wash pretreatment (B) washed twice at 30° C. only with water
[5] = coating concentration 0.001 %, wash pretreatment (C) washed once at 30° C. EN ISO 6330 method 8A with ECE B detergent
[6] = coating concentration 0.01 %, wash pretreatment (A) unwashed
[7] = coating concentration 0.01 %, wash pretreatment (B) washed twice at 30° C. only with water
[8] = coating concentration 0.01 %, wash pretreatment (C) washed once at 30° C. EN ISO 6330 method 8A with ECE B detergent
[9] = coating concentration 0.1 %, wash pretreatment (A) unwashed
[10] = coating concentration 0.1 %, wash pretreatment (B) washed twice at 30° C. only with water
[11] = coating concentration 0.1 %, wash pretreatment (C) washed once at 30° C. EN ISO 6330 method 8A with ECE B detergent
[12] = coating concentration 0.001 % based on fabric
[13] = coating concentration 0.01 % based on fabric
[14] = coating concentration 0.1 % based on fabric

CO[Si](CCCN(CCN(CC(=O)[O-])CC(=O)[O-])CC(=O)[O-])(OC)OC.[Na+].[Na+].[Na+] [S5, N-(trimethoxysilylpropyl)ethylenediaminetriacetyl acid, trisodium salt]
Reduction in cell count relative to control [%] S. aureus (Staphylococcus aureus [1]): 52% | Cell count [1/cm^2] S. aureus (Staphylococcus aureus [1]): 219 000 1/cm^2 | Reduction in adhered bacteria [%] (S. aureus DSMZ 20231; [3]): 69% | Reduction in adhered bacteria [%] (S. aureus DSMZ 20231; [4]): 59% | Reduction in adhered bacteria [%] (S. aureus DSMZ 20231; [5]): 75% | Reduction in adhered bacteria [%] (S. aureus DSMZ 20231; [6]): 44% | Reduction in adhered bacteria [%] (S. aureus DSMZ 20231; [7]): 22% | Reduction in adhered bacteria [%] (S. aureus DSMZ 20231; [8]): 53% | Reduction in adhered bacteria [%] (S. aureus DSMZ 20231; [9]): 72% | Reduction in adhered bacteria [%] (S. aureus DSMZ 20231; [10]): 68% | Reduction in adhered bacteria [%] (S. aureus DSMZ 20231; [11]): 38% | Reduction in adhered bacteria [%] S. aureus (S. aureus DSMZ 20231): 46% | Antimicrobial activity[log] Unwashed (Staphylococcus aureus [2]; [12]): 0.5 log | Antimicrobial activity[log] Washed once at 30° C., without detergent (Staphylococcus aureus [2]; [12]): −0.3 log | Antimicrobial activity[log] Washed twice with water (Staphylococcus aureus [2]; [12]): 0.9 log | Antimicrobial activity[log] Unwashed (Staphylococcus aureus [2]; [13]): −0.3 log | Antimicrobial activity[log] Washed once at 30° C., without detergent (Staphylococcus aureus [2]; [13]): −0.6 log | Antimicrobial activity[log] Washed twice with water (Staphylococcus aureus [2]; [13]): −0.2 log | Antimicrobial activity[log] Unwashed (Staphylococcus aureus [2]; [14]): −0.5 log | Antimicrobial activity[log] Washed once at 30° C., without detergent (Staphylococcus aureus [2]; [14]): −0.6 log | Antimicrobial activity[log] Washed twice with water (Staphylococcus aureus [2]; [14]): −0.4 log | Reduction in cell count relative to control [%] E. coli (Escherichia coli): 61% | Cell count [1/cm^2] E. coli (Escherichia coli): 306 000 1/cm^2

N-(triethoxysilylpropyl)-O-polyethylene oxide-urethane, (4-6 EO units) [S3]
Reduction in cell count relative to control [%] S. aureus (Staphylococcus aureus [1]): 83% | adhesion of S. aureus to coated glass, assessment in words (Staphylococcus aureus [1]; coated glass slides): Very good results | Cell count [1/cm^2] S. aureus (Staphylococcus aureus [1]): 77 000 1/cm^2 | Reduction in adhered bacteria [%] (S. aureus DSMZ 20231; [3]): 57% | Reduction in adhered bacteria [%] (S. aureus DSMZ 20231; [4]): 54% | Reduction in adhered bacteria [%] (S. aureus DSMZ 20231; [5]): 69% | Reduction in adhered bacteria [%] (S. aureus DSMZ 20231; [6]): 63% | Reduction in adhered bacteria [%] (S. aureus DSMZ 20231; [7]): 34% | Reduction in adhered bacteria [%] (S. aureus DSMZ 20231; [8]): 58% | Reduction in adhered bacteria [%] (S. aureus DSMZ 20231; [9]): 47% | Reduction in adhered bacteria [%] (S. aureus DSMZ 20231; [10]): 46% | Reduction in adhered bacteria [%] (S. aureus DSMZ 20231; [11]): 61% | Reduction in adhered bacteria [%] S. aureus (S. aureus DSMZ 20231): 55% | Antimicrobial activity[log] Unwashed (Staphylococcus aureus [2]; [12]): −0.5 log | Antimicrobial activity[log] Washed once at 30° C., without detergent (Staphylococcus aureus [2]; [12]): −0.8 log | Antimicrobial activity[log] Washed twice with water (Staphylococcus aureus [2]; [12]): −0.3 log | Antimicrobial activity[log] Unwashed (Staphylococcus aureus [2]; [13]): −0.1 log | Antimicrobial activity[log] Washed once at 30° C., without detergent (Staphylococcus aureus [2]; [13]): −0.1 log | Antimicrobial activity[log] Washed twice with water (Staphylococcus aureus [2]; [13]): 0.8 log | Antimicrobial activity[log] Unwashed (Staphylococcus aureus [2]; [14]): 0.0 log | Antimicrobial activity[log] Washed once at 30° C., without detergent (Staphylococcus aureus [2]; [14]): −0.4 log | Antimicrobial activity[log] Washed twice with water (Staphylococcus aureus [2]; [14]): 0.3 log | adhesion of bacteria to coated glass, assessment in words (Escherichia coli; both series of tests (S. aureus and E. coli), compared with glass control): very good results | Reduction in cell count relative to control [%] E. coli (Escherichia coli): 71% | Cell count [1/cm^2] E. coli (Escherichia coli): 233 000 1/cm^2
